{
  "source": "patent US20150133411A1",
  "about": "“COMPOUNDS WITH TRPV4 ACTIVITY, COMPOSITIONS AND ASSOCIATED METHODS THEREOF” (The University of Utah Research Foundation, priority 2012, published 2015)",
  "test_system": "MB model of glaucoma",
  "test": "IOP time course after single eye drop in MB model of glaucoma",
  "assay_type": "in vivo, mouse",
  "details": "single dose eye drop",
  "procedure": "Specifically, microbeads (MBs) were injected into the anterior chamber of a mouse eye as described in Example 2 with PBS-injected eyes used as controls. Compound 1 (10 mg/kg body weight) (or PBS vehicle) was injected intraperitoneally (IP). […] IOP was measured in mice between 10:00 AM and 1:00 PM with the TonoLab rebound tonometer (Colonial Medical Supply, Franconia, NH/Tyolat, Helsinki, Finland). Mice were sedated with IP injection of Avertin with final amount calculated by weight (e.g., 0.5 ml for 21-24 g animals). Animals were placed on a jack stand platform and the tonolab was clamped on a ring stand and centered onto the mid-cornea. During measurements animal were neither restrained nor touched. Each eye was measured twenty consecutive times, the highest and lowest values were discarded and the values were averaged.\nFIG. 9 illustrates the short-term effects of a single dose of Compound 1 (eye drop) in the MB model of glaucoma. IOP was measured as described in Example 3 at the indicated time points after receiving a drop of Compound 1. Compound 1 reduced IOP beginning at 1 hour after dosing and continued through 6 hours after dosing.\nFIG. 10 illustrates a time course of Compounds 1, 2, 5 and Compound 2-HCl as well as a positive control compound, timolol, with regard to inhibition of IOP. The experiment was conducted as described in Example 9. Each of the TRPV4 antagonists reduced IOP with a similar time course. Specifically, Compounds 1, 2, 5 and Compound 2-HCl reduced IOP for at least 6 hours after dosing.\nFIG. 11 illustrates a time course of Compound 2-HCl activity. The experiment was conducted as described in Example 9. […] 2\nFIG. 12 illustrates a comparison of the time course of Compound 2-HCl and Compound 5. The experiment was conducted as described in Example 9.",
  "data": [
    {"compound": "Cc1c(C(=O)Nc2cccc(C(F)(F)F)c2)cc(-c2ccccc2)n1CCCN1CCOCC1", "note": "[Compound 1, N-(3-(trifluoromethyl)phenyl)-2-methyl-1-(3-morpholinopropyl)-5-phenyl-1H-pyrrole-3-carboxamide]", "values": [
      {"measurement": "time after dosing at which IOP reduction begins", "value": 1, "unit": "h"}
    ]}
  ]
}
